According to EP0314154A2, “Tetrahydrofuro- and thieno(2,3-c)pyridines, their use as a medicament and process for their preparation” (BOEHRINGER INGELHEIM KG, priority 1987, dated 1989):

Tests used:
[1] = target: T1, Rezeptorsubtyp M₂ (Rattus norvegicus, UniProt P10980); assay: Muscarinic receptor binding study, M₂ subtype, heart, [³H]N-methylscopolamine; settings: Organ Herz, [³H]Ligand N-Methylscopolamin, kind of constant not stated
T1 construct: Herz; from tissue; host or cells: heart
T1 sequence (P10980 1-466): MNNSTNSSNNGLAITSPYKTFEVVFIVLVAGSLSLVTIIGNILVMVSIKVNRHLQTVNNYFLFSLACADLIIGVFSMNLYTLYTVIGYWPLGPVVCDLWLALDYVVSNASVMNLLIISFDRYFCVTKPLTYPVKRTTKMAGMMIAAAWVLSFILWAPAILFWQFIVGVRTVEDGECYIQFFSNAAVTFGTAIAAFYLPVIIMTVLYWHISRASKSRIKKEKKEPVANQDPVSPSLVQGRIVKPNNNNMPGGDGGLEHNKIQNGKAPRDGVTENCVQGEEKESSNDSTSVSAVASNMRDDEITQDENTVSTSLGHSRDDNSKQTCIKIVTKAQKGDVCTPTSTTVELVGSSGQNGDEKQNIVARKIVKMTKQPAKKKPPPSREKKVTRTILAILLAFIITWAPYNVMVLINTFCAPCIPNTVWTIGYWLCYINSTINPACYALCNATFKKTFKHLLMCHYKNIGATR
Source text: (§1) Die Rezeptorbindungsstudien im muskarinisch cholinergen System wurden an den drei Rezeptorsubtypen gemäß den untenstehenden Literaturzitaten ausgeführt (Watson, M., H. I. Yamamura and W.R. Roeske 1983, Life Sci. 32, 3001-3011; Hammer, R., C.P. Berrie, N.I.M. Birdsall, A.S.V. Burgen and E.C. Hulme 1980, Nature 283, 90-92; Hammer, R., E. Giraldo, G.B. Schiavi, E. Monferini and H. Ladinsky 1986, Life Sci. 38, 1653-1662;).

[2] = target: T2, Rezeptorsubtyp M₁ (Rattus norvegicus, UniProt P08482); assay: Muscarinic receptor binding study, M₁ subtype, hippocampus, [³H]pirenzepine; settings: Organ HIPPOCAMPUS, [³H]Ligand Pirenzepin, kind of constant not stated
T2 construct: HIPPOCAMPUS; from tissue; host or cells: hippocampus
T2 sequence (P08482 1-460): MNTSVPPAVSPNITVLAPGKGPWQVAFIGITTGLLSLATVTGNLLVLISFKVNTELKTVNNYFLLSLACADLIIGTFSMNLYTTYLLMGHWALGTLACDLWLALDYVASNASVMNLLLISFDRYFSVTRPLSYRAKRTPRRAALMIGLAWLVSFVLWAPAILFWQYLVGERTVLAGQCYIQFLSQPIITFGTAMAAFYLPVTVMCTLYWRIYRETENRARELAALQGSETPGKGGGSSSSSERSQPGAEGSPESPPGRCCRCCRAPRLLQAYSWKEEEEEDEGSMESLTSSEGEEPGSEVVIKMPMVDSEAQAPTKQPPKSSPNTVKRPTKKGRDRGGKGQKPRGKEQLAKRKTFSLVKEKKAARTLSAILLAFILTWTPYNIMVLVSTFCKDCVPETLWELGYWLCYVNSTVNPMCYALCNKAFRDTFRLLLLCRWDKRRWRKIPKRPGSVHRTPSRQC
Source text: as §1

[3] = target: Agonisten Bindungsstelle; assay: [³H]cis-methyldioxolane binding study (muscarinic agonist binding site); settings: [³H]Ligand cis-Methyldioxolan
Source text: Die erfindungsgemäßen Verbindungen verdrängen den muscarinen Agonisten mit hoher Affinität von der Agonisten Bindungsstelle. Die Durchführung der [3H]cis-Methyldioxolan-Bindungsstudien erfolgen analog zu A Closs et al., Naunyn Schmiedebergs Arch. Pharmacol 335, 372-377 (1987). Die Ergebnisse sind in Tabelle Ia zusammengestellt Tabelle Ia: […]

[4] = target: T3, Rezeptorsubtyp M₃ (Rattus norvegicus, UniProt P08483); assay: Muscarinic receptor binding study, M₃ subtype, lacrimal gland, [³H]N-methylscopolamine; settings: Organ Tränendrüse, [³H]Ligand N-Methylscopolamin, kind of constant not stated
T3 construct: Tränendrüse; from tissue; host or cells: lacrimal gland
T3 sequence (P08483 whole entry): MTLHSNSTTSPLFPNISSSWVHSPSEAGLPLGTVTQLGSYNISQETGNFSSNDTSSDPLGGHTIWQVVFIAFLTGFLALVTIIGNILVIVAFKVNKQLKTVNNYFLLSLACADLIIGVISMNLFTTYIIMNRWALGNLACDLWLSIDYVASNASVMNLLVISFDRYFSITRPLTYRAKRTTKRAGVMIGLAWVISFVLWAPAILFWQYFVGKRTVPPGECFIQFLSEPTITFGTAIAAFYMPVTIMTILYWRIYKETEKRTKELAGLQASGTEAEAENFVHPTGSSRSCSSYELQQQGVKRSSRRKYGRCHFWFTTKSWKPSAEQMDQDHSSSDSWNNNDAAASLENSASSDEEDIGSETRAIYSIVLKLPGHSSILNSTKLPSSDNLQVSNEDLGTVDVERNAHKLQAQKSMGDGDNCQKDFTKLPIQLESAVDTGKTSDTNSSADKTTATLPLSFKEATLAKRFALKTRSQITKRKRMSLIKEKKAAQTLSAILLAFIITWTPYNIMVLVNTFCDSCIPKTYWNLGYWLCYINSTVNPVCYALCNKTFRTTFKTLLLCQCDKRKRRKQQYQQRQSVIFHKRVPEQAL
Source text: as §1

[5] = EEG of the awake rabbit (arousal reaction); assay type: in vivo; settings: waches Kaninchen
Source text: Die erfindungsgemäßen tertiären Amine der allgemeinen Formel I zeigen Affinitäten zu muscarinen Rezeptoren im ZNS und im Tierexperiment muscarine agonistische Eigenschaften im ZNS.

[6] = Haloperidol-induced dyskinesias in haloperidol-sensitised monkeys; assay type: in vivo; settings: gegen Haloperidol sensibilisierte Affen; Dosis < 1 mg/kg i.m

CCN1CCc2c(oc(C)c2C)C1 [X=O, R₁=CH₃, R₂=CH₃, R₃=H, R₄=Et, R₅=H]
Rezeptorbindung [1]: 3,2 µMol | Rezeptorbindung [2]: 3,2 µMol

Cc1cc2c(o1)CN(C)CC2 [X=O, R₁=CH₃, R₂=H, R₃=H, R₄=CH₃, R₅=H, 2,6-Dimethyl-4,5,6,7-tetrahydrofuro[2,3-c]pyridin]
Rezeptorbindung [1]: 6,5 µMol | Ki [3]: 81 nM | Rezeptorbindung [2]: 8,3 µMol | Rezeptorbindung [4]: 24,2 µMol | Arousal-Reaktion im EEG ([5]; 1 mg/kg i.v.): eine für Cholinomimetica typische Arousal-Reaktion | Arousal-Reaktion im EEG ([5]; 3 mg/kg p.o.): eine für Cholinomimetica typische Arousal-Reaktion

CCc1cc2c(o1)CN(C)CC2 [X=O, R₁=Et, R₂=H, R₃=H, R₄=CH₃, R₅=H, 2-Ethyl-6-methyl-4,5,6,7-tetrahydro-furo[2,3-c]pyridin]
Rezeptorbindung [1]: 1,0 µMol | Ki [3]: 52 nM | Rezeptorbindung [2]: 1,4 µMol

CCCc1cc2c(o1)CN(C)CC2 [X=O, R₁=N-Pr, R₂=H, R₃=H, R₄=CH₃, R₅=H, 6-Methyl-2-n-propyl-4,5,6,7,-tetrahydro-furo[2.3-c]pyridin]
Ki [3]: 53 nM

CC(C)Cc1cc2c(o1)CN(C)CC2 [X=O, R₁=iso-Bu, R₂=H, R₃=H, R₄=CH₃, R₅=H, 6-Methyl-2-iso-butyl-4,5,6,7,-tetrahydro-furo[2.3-c]pyridin]
Rezeptorbindung [1]: 2,5 µMol | Rezeptorbindung [2]: 0,8 µMol | Rezeptorbindung [4]: 2,7 µMol

CCCCc1cc2c(o1)CN(C)CC2 [X=O, R₁=n-Bu, R₂=H, R₃=H, R₄=CH₃, R₅=H, 6-Methyl-2-n-butyl-4,5,6,7,-tetrahydro-furo[2.3-c]pyridin]
Rezeptorbindung [1]: 0,7 µMol | Ki [3]: 39 nM | Rezeptorbindung [2]: 0,5 µMol

CCCc1cc2c(o1)CNCC2 [X=O, R₁=n-Pr, R₂=H, R₃=H, R₄=H, R₅=H]
Ki [3]: 160 nM

Cc1cc2c(s1)CN(C)CC2C (stereo not drawn) [X=S, R₁=CH₃, R₂=H, R₃=H, R₄=CH₃, R₅=CH₃, 2,4,6-Trimethyl-4,5,6,7-tetrahydrothieno[2,3-c]pyridin]
Rezeptorbindung [1]: 8,4 µMol | Rezeptorbindung [2]: 5,8 µMol | Rezeptorbindung [4]: 34,1 µMol

Cc1cc2c(s1)CN(C)CC2 [X=S, R₁=CH₃, R₂=H, R₃=H, R₄=CH₃, R₅=H, 2,6-Dimethyl-4,5,6,7-tetrahydrothieno[2,3-c]pyridin]
Rezeptorbindung [1]: 14 µmol | Rezeptorbindung [2]: 7,5 µMol | Dyskinesien zusammen mit unterschwelligen Dosen (Haloperidol) [6]: lösen zusammen mit unterschwelligen Dosen Dyskinesien aus | durch Haloperidol hervorgerufene Dyskinesien [6]: verstärken | Rezeptorbindung [4]: 53,1 µMol

CCN1CCc2cc(C)sc2C1 [X=S, R₁=CH₃, R₂=H, R₃=H, R₄=Et, R₅=H, 6-Ethyl-2-methyl-4,5,6,7-tetrahydrothieno[2,3-c]pyridin]
Rezeptorbindung [1]: 4,5 µMol | Rezeptorbindung [2]: 2,2 µMol | Rezeptorbindung [4]: 11,4 µMol

Cc1cc2c(s1)CNCC2 [X=S, R₁=CH₃, R₂=H, R₃=H, R₄=H, R₅=H, 2-Methyl-4,5,6,7,-tetrahydro-thieno[2,3-c]pyridin]
Rezeptorbindung [1]: >100 µmol | Rezeptorbindung [2]: 39,6 µMol | Rezeptorbindung [4]: >100 µmol

CN1CCc2ccsc2C1 [X=S, R₁=H, R₂=H, R₃=H, R₄=CH₃, R₅=H, 6-Methyl-4,5,6,7,-tetrahydro-thieno[2,3-c]pyridin]
Rezeptorbindung [1]: >100 µmol | Rezeptorbindung [2]: 36,3 µMol | Rezeptorbindung [4]: >100 µmol
